# Experimental data as given in US11185100B2 (priority 2014, dated 2021).
# Like-named read-outs stand apart in the source and are kept apart here.
# Biological target: T1R1/T1R3 receptor (Felis catus, UniProt E3UMS2)
# Assay: Activation of T1R1/T1R3 receptor by transmembrane compounds alone or with alanine, IMP, GMP, phenylalanine; HEK293 cells, calcium fluorescence (Example 5)
# Assay type: cell-based, cat
# Settings: for Max resp % of IMP +Alanine (20 mM): relative to IMP; for Thres +Alanine (20 mM) / Thres +IMP (0.2 mM): threshold concentration; for Max resp % of Ala +IMP (0.2 mM): relative to Ala; for Activity: Table 18, all transmembrane compounds tested, active / N/A (not active)
# Description: Methods: HEK293 cells that stably express T1R3 and inducibly express T1R1 were exposed to transmembrane compounds alone or in combination with one or more amino acids and/or one or more nucleotides to activate the umami receptor. Activation of the T1R1/T1R3 receptor was detected by a change in intracellular calcium levels using a calcium sensitive fluorescent dye. Cells that express T1R3 but not T1R1 were used as a control. A FLIPR® Tetra or a FlexStation® 3 was used for data capture.
# In each experiment, serial dilutions of up to 10 mM of the transmembrane compound were added to the T1R1/T1R3-expressing cells.
SMILES,Max resp % of IMP +Alanine (20 mM) (+Alanine (20 mM)) [%],Thres +Alanine (20 mM) (+Alanine (20 mM)) [mM],Max resp ΔF/F +IMP (0.2 mM),Max resp % of Ala +IMP (0.2 mM) [%],Thres +IMP (0.2 mM) [mM],Activity,+IMP (0.2 mM) Max resp % of Ala,activation of T1R1/T1R3 by the transmembrane compound alone (in words),+Alanine (20 mM) Max resp % of IMP (+Alanine (20 mM)),+Alanine (20 mM) Max resp ΔF/F (+Alanine (20 mM)),+Alanine (20 mM) Thres (+Alanine (20 mM)) [mM],"EC50 (compound alone in buffer, read-out: EC50 +buffer (alone)) [µM]","EC50 (read-out: +Alanine (20 mM) + IMP (0.2 mM) EC50, +Alanine (20 mM) + IMP (0.2 mM)) [µM]","EC50 (read-out: EC50 +Alanine (20 mM) + IMP (0.2 mM), +Alanine (20 mM) + IMP (0.2 mM)) [µM]","EC50 (read-out: EC50 +Alanine (20 mM), +Alanine (20 mM)) [µM]"
"CCCC(C)NC(=O)/C=C/c1ccc(OC)c(OC)c1 (centres unmarked) [(E)-3-(3,4-dimethoxyphenyl)-N-(pentan-2-yl)acrylamide]",35.2,1,1.07 ΔF/F,86.9,0.55,active,–,–,–,–,–,–,–,–,–
"COc1cc(C(=O)NC(C(N)=O)c2ccccc2)cc(Cl)c1OC (centres unmarked) [N-(2-amino-2-oxo-1-phenylethyl)-3-chloro-4,5-dimethoxybenzamide]",–,–,0.415 ΔF/F,49.4,0.17,active,49.4 % of Ala,failed to activate,–,–,–,–,–,–,–
CCC(CC)NC(=O)c1ccc(Br)o1 [5-bromo-N-(pentan-3-yl)furan-2-carboxamide],126.8,1,1.8425 ΔF/F,149.6,0.3,active,149.6 % of Ala,–,126.8 % of IMP,1.575 ΔF/F,1,–,–,–,–
"O=C(CN1C(=O)C(=O)N(Cc2ccccc2)C1=O)c1ccccc1 [1-benzyl-3-(2-oxo-2-phenylethyl)imidazolidine-2,4,5-trione]",127.6,1,1.140 ΔF/F,135.7,0.08,active,135.7 % of Ala,–,127.6 % of IMP,1.3 ΔF/F,1,> 1000,330 ± 40,330,> 1000
COC(=O)C(NC(=O)/C=C/c1cccs1)C(C)C (centres unmarked) [(E)-methyl 3-methyl-2-(3-(thiophen-2-yl)acrylamido)butanoate],9.5,10,0.7375 ΔF/F,59.9,1,active,59.9 % of Ala,–,9.5 % of IMP,0.1175 ΔF/F,10,–,–,–,–
"CCOC(=O)C(NC(=O)c1ccc2c(c1)OCO2)C(C)C (centres unmarked) [ethyl 2-(benzo[d][1,3]dioxole-5-carboxamido)-3-methylbutanoate]",25.6,10,0.65 ΔF/F,52.8,1,active,52.8 % of Ala,–,25.6 % of IMP,0.3175 ΔF/F,10,–,–,–,–
O=C(NCCc1ccccc1)C(=O)NCc1cccnc1 [N1-phenethyl-N2-(pyridin-3-ylmethyl)oxalamide; N-(2-phenylethyl)-N′-(pyridin-3-ylmethyl)ethanediamide],–,–,–,–,–,–,61.9 % of Ala,–,30.2 % of IMP,0.3750 ΔF/F,1,–,–,–,–
"CCC(CC)NC(=O)c1ccc(C)c(C)c1 [3,4-dimethyl-N-(pentan-3-yl)benzamide; N-(1-ethylpropyl)-3,4-dimethylbenzamide]",–,–,–,–,–,–,125.7 % of Ala,–,97.8 % of IMP,1.2150 ΔF/F,3,–,–,–,–
"CCCC(CCC)C(=O)Nc1ccc2c(c1)OCO2 [N-(benzo[d][1,3]dioxol-5-yl)-2-propylpentanamide]",–,–,0.908 ΔF/F,108.0,0.0675,active,108.0 % of Ala,function as an agonist,–,–,–,–,–,–,–
"CC1CCCC(NC(=O)c2ccc3c(c2)OCO3)C1C (centres unmarked) [N-(2,3-dimethylcyclohexyl) benzo[d][1,3]dioxole-5-carboxamide]",18.1,3,1.175 ΔF/F,95.4,0.275,active,95.4 % of Ala,–,18.1 % of IMP,0.225 ΔF/F,3,–,–,–,–
